Measurements: patent US6346535B1, “Fungicidal mixtures” (American Cyanamid Company, priority 1999, dated 2002)

Experiments:
Format in all cases: in vivo
[1] = system: Erysiphe cichoracearum on cucumbers; experiment: Greenhouse trial, 4 day residual, Erysiphe cichoracearum on cucumbers; details: Golovinomyces cichoracearum, 96 h, Table XI, compound alone, read-out: Observed Efficacy
Summary of the method: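 Cucumber plants were sprayed to near run-off with compounds or mixtures (5% acetone/0.05% Tween 20 aqueous). Four days later they were inoculated by dusting with Erysiphe cichoracearum conidia. Percent diseased leaf area was assessed about 7 days after inoculation, and efficacy and Colby synergy were calculated from it.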

[2] = system: Pyrenophora teres on barley; experiment: Greenhouse trial, 4 day residual, Pyrenophora teres on barley; details: Pyrenophora teres, 96 h, Table XIII (Example 13), 4 day residual, read-out: Observed Efficacy
Excerpt: (§1) The fungicides are applied in single treatments, or in a combination comprising a benzophenone of formula I and a compound selected from (A) through (E) as defined above. The compounds are applied in form of an aqueous spray mix obtained from a concentrated formulation or the technical material.
(§2) 1. Seed is planted in 6 cm diameter plastic pots and maintained in the greenhouse.
(§3) 2. When the primary leaf is fully expanded (in the case of cereals) or several leaves are present (in the case of dicots), formulated test compounds are sprayed with a three nozzle overhead fungicide sprayer to near run-off. Alternatively, a single nozzle overhead track sprayer is used for application of the compounds to cereals at a rate of 200 liters/ha (l/ha). Plants are then allowed to air-dry.
(§4) 3. Inoculation precedes treatment in the case of curative evaluations and follows treatment in case of residual evaluations. For inoculation of powdery mildew disease, plants are set up on greenhouse benches with bottom watering mats and inoculated by dusting them with conidia from infected plants. Between inoculation and treatment for curative evaluations and between treatment and inoculation for residual evaluations, plants are maintained in the greenhouse with bottom watering. For inoculation of non-powdery mildew diseases, an aqueous spore suspension of the pathogen is applied to the plant and the plants are kept 1-2 days in a moist infection chamber before being returned to the greenhouse where they are maintained by bottom watering.
(§5) 4. Disease on the foliage as percent leaf area with disease symptoms/signs is evaluated about 7 days after inoculation. In the case of wheat, the tips and bases of the leaves are excluded from the evaluation. [formula]
(§6) 1. Technical compounds are formulated in a solvent/surfactant system consisting of 5% acetone and 0.05% Tween 20 in deionized water. Compounds are dissolved in acetone prior to addition of the water; the Tween 20 can be added through either the acetone or the water. Dilutions are made using the solvent/surfactant system. Formulated compounds are prepared using deionized water.
(§7) Assessments of the diseases took place at the indicated day after the application of the compounds. Per cent infected leaf area infected was evaluated. The efficacy of the compounds/compounds mixtures to control the diseases was calculated by using the formula given above under item 4: […]
(§8) Synergy of a fungicide mixture was determined by comparing the actual (observed) fungicidal activity of the mixture to the expected fungicidal activity of the mixture as calculated using the COLBY formula given hereinabove.
Fungicidal Efficacy of the Mixture of BP-4+Other Fungicides (4 Day Residual) Against Pyrenophora teres on Barley

[3] = system: Blumeria graminis f. sp. tritici on wheat; experiment: Greenhouse trial, 2 day curative, Blumeria graminis f. sp. tritici on wheat; details: Table XVII, compound alone
Description: as §1, with “The trials are carried out under greenhouse (Examples 1 to 18) or field conditions (Example 19) in residual or curative applications. The fungicides” for “The fungicides”
as §2, §3, §4, §5, §6, §7, §8
Fungicidal Efficacy of the Mixture of Different Benzophenones+Metconazole (2 Day Curative) Against Blumeria graminis f. sp. tritici on Wheat
The tank mixes were obtained from technical material of the benzophenones BP-2 and BP-4 and metconazole.

[4] = system: Cercospora beticola; experiment: Field trial against the sugar beet disease Cercospora beticola; details: Table XIX, compound alone
Description: The trials are carried out under greenhouse (Examples 1 to 18) or field conditions (Example 19) in residual or curative applications. The fungicides are applied in single treatments, or in a combination comprising a benzophenone of formula I and a compound selected from (A) through (E) as defined above. The compounds are applied in form of an aqueous spray mix obtained from a concentrated formulation or the technical material. For the field study formulated benzophenones BP-1 through BP-4 and formulated compounds from (A) through (E) were used. The compounds are applied according to good agricultural practice in form of an aqueous spray mix obtained from concentrated formulation or the technical material at a rate of 400 l/ha. The disease control is evaluated according to the formula given for the greenhouse tests. Fungicidal Efficacy of the Mixture of BP-1+Metconazole in the Field Against the Sugar Beet Disease Cercospora beticola The tank mix was obtained from a SC formulation containing 100 g of BP-1 per liter and a SL formulation containing 60 g of metconazole per liter.

[5] = system: Blumeria graminis on wheat; experiment: Greenhouse trial, 4 day curative, Blumeria graminis on wheat; details: compound alone
Description: The trials are carried out under greenhouse (Examples 1 to 18) or field conditions (Example 19) in residual or curative applications. The fungicides are applied in single treatments, or in a combination comprising a benzophenone of formula I and a compound selected from (A) through (E) as defined above. The compounds are applied in form of an aqueous spray mix obtained from a concentrated formulation or the technical material. […] Seed is planted in 6 cm diameter plastic pots and maintained in the greenhouse. […] When the primary leaf is fully expanded (in the case of cereals) or several leaves are present (in the case of dicots), formulated test compounds are sprayed with a three nozzle overhead fungicide sprayer to near run-off. Alternatively, a single nozzle overhead track sprayer is used for application of the compounds to cereals at a rate of 200 liters/ha (l/ha). Plants are then allowed to air-dry. […] Inoculation precedes treatment in the case of curative evaluations and follows treatment in case of residual evaluations. For inoculation of powdery mildew disease, plants are set up on greenhouse benches with bottom watering mats and inoculated by dusting them with conidia from infected plants. Between inoculation and treatment for curative evaluations and between treatment and inoculation for residual evaluations, plants are maintained in the greenhouse with bottom watering. For inoculation of non-powdery mildew diseases, an aqueous spore suspension of the pathogen is applied to the plant and the plants are kept 1-2 days in a moist infection chamber before being returned to the greenhouse where they are maintained by bottom watering. […] Disease on the foliage as percent leaf area with disease symptoms/signs is evaluated about 7 days after inoculation. In the case of wheat, the tips and bases of the leaves are excluded from the evaluation. [formula] […] Compounds are dissolved in acetone prior to addition of the water; the Tween 20 can be added through either the acetone or the water. Dilutions are made using the solvent/surfactant system. Formulated compounds are prepared using deionized water. Assessments of the diseases took place at the indicated day after the application of the compounds. Per cent infected leaf area infected was evaluated. […] Synergy of a fungicide mixture was determined by comparing the actual (observed) fungicidal activity of the mixture to the expected fungicidal activity of the mixture as calculated using the COLBY formula given hereinabove.

[6] = system: Blumeria graminis on wheat; experiment: Greenhouse trial, 3 day protective, Blumeria graminis on wheat; details: Table V, compound alone
Excerpt: as §1, §2, §3, §4, §5, §6, §7, §8
Fungicidal Efficacy of the Mixture of BP-5+Triforine (3 Day Protective) Against Blumeria graminis on Wheat
Fungicidal Efficacy of the Mixture of BP-1+Triadimefon (3 Day Protective) Against Blumeria graminis on Wheat

| Compound | pest or weed control at 0.4 ppm ([1]; dose rate 0.4 ppm) | pest or weed control at 10 ppm ([1]; dose rate 10 ppm) | pest or weed control at 50 ppm ([1]; dose rate 50 ppm) | pest or weed control at 0.4 ppm ([2]; dose rate 0.4 ppm) | pest or weed control at 10 ppm ([2]; dose rate 10 ppm) | Observed Efficacy ([3]; dose rate 0.33 ppm) | Observed Efficacy ([3]; dose rate 1 ppm) | Observed Efficacy ([3]; dose rate 3 ppm) | Observed Efficacy ([3]; dose rate 9 ppm) | Observed Efficacy ([3]; dose rate 27 ppm) | Observed Efficacy ([4]; dose rate 90 g/ha) | Observed Efficacy ([5]; Table I, dose rate 25 ppm) | Observed Efficacy ([5]; Table I, dose rate 125 ppm) | Observed Efficacy ([5]; Table II, dose rate 25 ppm) | Observed Efficacy ([5]; Table II, dose rate 125 ppm) | Observed Efficacy ([5]; Table III, dose rate 25 ppm) | Observed Efficacy ([5]; Table III, dose rate 125 ppm) | Observed Efficacy ([6]; dose rate 1 ppm) | Observed Efficacy ([6]; dose rate 5 ppm) | Observed Efficacy ([4]; dose rate 250 g/ha) |
| --- | --- | --- | --- | --- | --- | --- | --- | --- | --- | --- | --- | --- | --- | --- | --- | --- | --- | --- | --- | --- |
| CC1(C)CCC(Cc2ccc(Cl)cc2)C1(O)Cn1cncn1 (centres unmarked) [Metconazole] | 2% | 75% | 99% | 0% | 47% | 0% | 2% | 7% | 14% | 40% | 58% |  |  |  |  |  |  |  |  |  |
| CCCCOc1c(OC)c(OC)cc(C)c1C(=O)c1c(Cl)cccc1Cl [BP-1, 6′-butoxy-2,6-dichloro-4′,5′-dimethoxy-2′-methylbenzophenone] |  |  |  |  |  |  |  |  |  |  |  | 1% | 42% | 1% | 42% | 1% | 42% | 44% | 78% | 42.5% |
